These results are taken from patent US20260049091A1, “2-(1,8-DIETHYL-1,3,4,9-TETRAHYDROPYRANO[3,4-B]INDOL-1-YL)-1-(4-METHYLPIPERAZIN-1-YL)ETHAN-1-ONE ETODOLAC DERIVATIVE AS EUKARYOTIC ELONGATION FACTOR 2 KINASE (EEF2K) INHIBITOR FOR TARGETED CANCER THERAPY” (BAHCESEHIR UNIVERSITESI, priority 2023, published 2026).

Molecules are shown by their SMILES.

For test [1], the target named is T1, eEF2K (Homo sapiens, UniProt O00418).
T1 sequence (O00418 1-725): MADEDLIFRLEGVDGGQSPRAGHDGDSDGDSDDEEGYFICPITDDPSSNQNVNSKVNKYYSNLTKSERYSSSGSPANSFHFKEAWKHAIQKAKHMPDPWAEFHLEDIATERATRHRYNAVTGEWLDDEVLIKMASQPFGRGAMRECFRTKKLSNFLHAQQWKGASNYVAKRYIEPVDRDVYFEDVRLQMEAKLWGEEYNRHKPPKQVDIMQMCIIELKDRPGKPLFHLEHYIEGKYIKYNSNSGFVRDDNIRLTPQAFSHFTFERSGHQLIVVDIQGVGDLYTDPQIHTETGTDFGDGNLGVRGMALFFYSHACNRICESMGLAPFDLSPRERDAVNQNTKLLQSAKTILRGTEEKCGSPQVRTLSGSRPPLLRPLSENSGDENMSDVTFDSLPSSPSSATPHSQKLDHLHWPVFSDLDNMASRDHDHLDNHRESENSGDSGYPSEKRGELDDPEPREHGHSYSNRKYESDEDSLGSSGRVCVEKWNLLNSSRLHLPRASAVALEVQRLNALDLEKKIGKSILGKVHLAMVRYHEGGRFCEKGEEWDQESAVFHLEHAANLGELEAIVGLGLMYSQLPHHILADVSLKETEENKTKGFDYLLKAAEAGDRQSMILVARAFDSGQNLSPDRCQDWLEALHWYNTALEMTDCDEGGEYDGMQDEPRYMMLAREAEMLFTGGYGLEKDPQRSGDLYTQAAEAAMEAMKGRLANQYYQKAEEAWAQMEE
The following applies: cited from earlier work; for eEF2K inhibition (reported, in words): literature.

For test [2], the target named is T1, eEF2K. Briefly: Western blot analysis of eEF2K inhibition (p-EF2 Thr56) in MDA-MB-231 cells. The format is cell-based. The following applies: for eEF2K inhibition potential (p-EF2 Thr56): MDA-MB-231 (TNBC) cells, 2.5 to 20 micromolar, 2 h; for eEF2K inhibition, reduced p-EF2 (Thr56) levels: MDA-MB-231 cells, 2.5 micromolar, 2 h treatment. The procedure: MeOH: distilled water by volume (%) (70:30) was used as the mobile phase for HPLC analysis for the inventive compound and the flow rate was set to 1 mL min^−1. Triple negative breast cancer (TNBC) cell lines (ER-, PR- and HER2-) MDA-MB-231 cells were purchased from the American Type Culture Collection (ATCC) (Manassas, VA, USA). MDA-MB-231 cells were cultured in Dulbecco's modified Eagle's medium (DMEM)/F12 supplemented with 10% FBS (Fetal Bovine Serum) and 100 U mL^−1 penicillin and streptomycin. Specific antibodies (p-EF2 (Thr56) (2331S), eEF2 (2332S), eEF2K (3692S) and GAPDH (5174S)) were purchased from Cell Signaling Technology (CST).
Western blot analysis was carried out according to previously reported studies to evaluate the eEF2K inhibition activity for the synthesized compounds. The synthesized compound was applied to MDA-MB-231 cells in the range of various concentrations from 2.5 to 20 micromolar for 2 h treatment. The expression levels of p-EF2 (Thr56) inhibition and eEF2K activity were determined by using related antibodies such as p-EF2 (Thr56), eEF2 and eEF2K. Glyceraldehyde 3-phosphate dehydrogenase (GAPDH) was used as a loading control.
To determine the effects of the synthesized compounds in inhibiting eEF2K activity in TNBC, MDA-MB-231 cells, we performed western blot analysis at concentrations ranging from 2.5 micromolar to 20 micromolar in a dose-dependent manner. eEF2K inhibition was detected by decreased phosphorylation levels of EF2 (p-EF2-Thr-56), a direct downstream substrate of the enzyme.
A general note: In western blotting, separated proteins are transferred to a membrane and probed.

`Cc1cc(C=C2C(=O)C=CC2=O)cc(C)c1O` [TX1918]: the “concentration reported to inhibit eEF2K” value at eEF2K [1] (literature [44-46]) was 10 µM. For the same compound, the “eEF2K inhibition (reported, in words)” value at eEF2K [1] is “did not show significant eEF2K inhibition”.

Take `CCc1cccc2c3c([nH]c12)C(CC)(CC(=O)O)OCC3` (racemic) [Etodolac, (R,S)-2-[1,8-diethyl-1,3,4-tetrahydropyrano [3,4-b]indol-1-yl]acetic acid]: at eEF2K [2], the “eEF2K inhibition potential (p-EF2 Thr56)” value was “did not show any inhibition potential”.

Turning to `CCCCCCCCCCCCCCCCn1cc[n+](Cc2ccccc2)c1C.[I-]` [NH125], the “eEF2K inhibition (reported, in words)” value on eEF2K [1] is given as “does not inhibit EF2K but rather increases eEF2 phosphorylation”.

For `CCc1cccc2c3c([nH]c12)C(CC)(CC(=O)N1CCN(C)CC1)OCC3` (stereo not shown) [Inventive compound, 2-(1,8-diethyl-1,3,4,9-tetrahydropyrano [3,4-b]indol-1-yl)-1-(4-methylpiperazin-1-yl) ethan-1-one], on eEF2K [2], the “eEF2K inhibition potential (p-EF2 Thr56)” value is listed as “high inhibition potential” and the “eEF2K inhibition, reduced p-EF2 (Thr56) levels” value is on record as “highest phospho-eEF2 (Thr56) inhibition”. At eEF2K [2] (listed as compound of the invention), the “eEF2K inhibition, reduced p-EF2 (Thr56) levels” value is on record as “marked inhibition of eEF2K”.
